Laboratory results reported in US9828576B2, “Cell culture” (National University of Singapore, priority 2012, dated 2017).
“Also recorded” adds a separate entry of the source.

Test system: bile canaliculi of hepatocyte couplets
Assay: Bile canaliculi (BC) morphology of hepatocyte couplets in F/F microwells after drug treatment (F-actin staining, confocal imaging)
Assay type: cell-based, rat
Details: for degree of folding r of BC / vertical aspect ratio i of BC: F/F microwells with drug, compared with control F/F microwells (FIG. 6D); for BC morphology: hepatocytes in F/F microwells
Protocol: For control, hepatocytes cultured for 48 hours in microwells were fixed in 4% para-formaldehyde (PFA) for 30 minutes. For ±Blebbistatin (Merck, 203390) or Y27632 (Sigma, Y0503) treatments, drugs were added 4 h before fixation, while soluble RGD (Sigma, G5646) was incubated with hepatocytes overnight. After fixation, the cells were rinsed by PBS and permeabilized for 30 min in TBST (0.2% Triton-X in TBS). The permeabilized cells were blocked with 1% BSA in TBST for 4 h and incubated overnight with pan-Cadherin antibody (sigma, C1821) and anti-ZO-1 antibody (life technology, 61-7300) at 4° C. as instructed in manuals. After rinsed with TBST, the cells were incubated in secondary antibodies (Life Technology, A10040 and A-31571) and phalloidin-alexa 488 (Life Technology, A12379) for 1 h in dark at room temperature. After rinsed with TBST again and incubated shortly with DAPI (Sigma, D9564), cells were mounted in mounting medium (DAKO, S3023). 3D stack of confocal microscopy images were acquired with 100×NA1.4 oil lens on a Nikon A1R Confocal Microscope.
The selected slices of image stacks were reconstructed as maximum intensity projection or orthogonal section view. Manual segmentation was applied based on F-actin signal, because F-actin provides a better definition of BC boundaries, compared with ZO-1 (FIG. 11). Several features, such as parameter, thickness, horizontal spin size and area of bile canaliculi, were extracted subsequently.
When cells adhered to the side of microwell only (F/P configuration), hepatocytes positioned side by side (FIG. 5C, 5D). […] To confirm the importance of cell-ECM adhesion in obtaining flat tubular BC, we treated the hepatocytes in F/F microwells on day 1 with soluble RGD peptides (250 μM, overnight) that antagonized the integrin-mediated cell-ECM adhesion while keeping the chemical signalling unperturbed. Indeed, as cells detached from the microwells, their BC rounded up to be morphologically equivalent to those observed in the P/F case (FIG. 6A).
Therefore, we tested whether actomyosin contractility was required for the differential control of BC morphology by the spatial organization of cell-ECM adhesion. […] The resulting morphologies were similar to those obtained in the P/F configuration (FIG. 6B, 6C).
The BC morphologies in different conditions were quantitatively assessed by two dimensionless parameters: the degree of folding and vertical aspect ratio. The degree of folding r=P^2/(4πA) was evaluated by measuring the ratio of the BC projected perimeter P to the projected area A. This morphological index r ranges from 1 (circle) upward (folded tubular structures). The vertical aspect ratio i was calculated as the ratio of the BC maximal height over maximal elongation in the XY plane. Higher vertical aspect ratio represents a thicker BC.

Row | SMILES | degree of folding r of BC | vertical aspect ratio i of BC | BC morphology (blebbistatin 100 μM for 4 hours) | BC morphology (blebbistatin 100 μM for 4 hours, listed as blebbistatin +/−) | BC morphology (Y27632 10 μM for 4 hours)
1 | Cc1ccc2c(c1)C(=O)C1(O)CCN(c3ccccc3)C1=N2 (stereo not shown) [blebbistatin] | lower | higher | rounded up | converted tubular BC into spherical ones | –
2 | C[C@@H](N)[C@H]1CC[C@H](C(=O)Nc2ccncc2)CC1 [Y27632] | lower | higher | – | – | rounded up; also recorded: converted tubular BC into spherical ones
